From patent publication US9777015B2, “Useful thiophene derivatives in the treatment of diabetes” (METABRAIN RESEARCH, priority 2012, dated 2017) come the findings set out here.

Counter-ions that a name gives are not always drawn. Like-named read-outs stand apart in the source and are kept apart here.

This experiment has as its system hepatocytes isolated from Wistar rat liver. As to the kind of experiment: Test of inhibition of hepatic production of glucose (isolated hepatocytes, 3 h or 20 h incubation). The conditions noted are these: for activity at 50 µM / activity at 100 µM: Rattus norvegicus, Hepatocyte; for activity at 50 µM: read-out: HGP % of ctrl @ 50 μM; for activity at 100 µM: read-out: HGP % of ctrl @ 100 μM. It is filed as cell-based. The protocol:
The hepatocytes are isolated from Wistar rat liver having fasted for 24 h after perfusion of collagenase in the portal vein. The freshly isolated hepatocytes are sown in 6-well plates coated with collagen and containing an adhesion medium (Williams Medium). After adhesion, the medium is replaced with RPMI 1640 medium without any glucose, containing hydrocortisone (7.10^−5M) for a duration from 16 to 18 h. The next day, the glucose hepatic production test is conducted in a Krebs medium for 3 h. The basal conditions are cells incubated with only Krebs, the stimulated conditions are the cells placed in Krebs+lactate+pyruvate, the produced conditions are the cells exposed to chemical compounds in a Krebs/lactate/pyruvate medium. In the case when the compounds are dissolved in DMSO, all the conditions of the tests are met in the presence of a final concentration of 0.1% DMSO. The positive control of the test is the mercaptopicolinate known for its inhibitory action on hepatic production of glucose via the phosphoenolpyruvate carboxykinase. For short term treatments, the compounds are incubated for 3 h. For long term treatments, the compounds are incubated for 20 h at the moment when the hepatocytes are cultivated in RPMI and then added during the hepatic production test for 3 h. At the end of the 3 hours of incubation, the supernatant is recovered for measurement of glucose with a colorimetric method using glucose oxidase. The cells are lysed with a 0.1% NaOH aqueous solution in order to measure the amount of protein with the Lowry method. The results are expressed in mmols of glucose per mg of protein.

Where [1] appears, read: 3 h, hepatic glucose production, rat hepatocytes, 3 h incubation, compound at 50 μM.
Setting [2] is: 3 h, hepatic glucose production, rat hepatocytes, 3 h incubation, compound at 100 μM.
The mark [3] stands for this setting: 20 h incubation, with two doses.
The mark [4] stands for this setting: 20 h, hepatic glucose production, rat hepatocytes, 20 h incubation, compound at 50 μM.
[5] abbreviates: 20 h, hepatic glucose production, rat hepatocytes, 20 h incubation, compound at 100 μM.

On to `COc1ccc(-c2sc(C(=O)c3ccccc3OC)cc2CC(=O)O)cc1` [compound 69, 2-(5-(2-methoxybenzoyl)-2-(4-methoxyphenyl)thiophen-3-yl)acetic acid], for which the activity at 50 µM under setting [1] was 86%. In addition, the activity at 100 µM under setting [2] was 60%.

Take `COc1ccc(-c2sc(C(=O)CCc3ccccc3)cc2CC(=O)O)cc1` [compound 80, 2-(2-(4-methoxyphenyl)-5-(3-phenylpropanoyl)thiophen-3-yl)ace acetic acid]: the activity at 50 µM under setting [1] stood at 83%. Moreover, the activity at 100 µM under setting [2] is 67%.

With `COc1ccc(C(=O)c2cc(CC(=O)O)c(-c3ccc(Cl)c(Cl)c3)s2)cc1` [compound 81, 2-(2-(3,4-dichlorophenyl)-5-(4-methoxybenzoyl)thiophen-3-yl) acetic acid], the activity at 50 µM under setting [1] stood at 106%. The activity at 100 µM under setting [2] is 54%.

As to `O=C([O-])Cc1cc(C(=O)c2ccco2)sc1-c1ccc(Cl)cc1.[Na+]` [compound 82, sodium 2-(2-(4-chlorophenyl)-5-(furan-2-carbonyl)thiophen-3-yl)acetate], the “HGP % of ctrl @ 50 μM” value (hepatic glucose production, rat hepatocytes, 3 h incubation, compound at 50 μM) is on record as 67 % of ctrl. Besides, the “HGP % of ctrl @ 100 μM” value (hepatic glucose production, rat hepatocytes, 3 h incubation, compound at 100 μM) is 26 % of ctrl.

With `COc1ccc(C(=O)c2cc(CC(N)=O)c(-c3ccc(Cl)cc3)s2)cc1` [compound 86, 2-(2-(4-chlorophenyl)-5-(4-methoxybenzoyl)thiophen-3-yl)acetamide], under setting [1], the activity at 50 µM came out at 77%. In addition, the activity at 100 µM under setting [2] stood at 72%.

On to `CCOC(=O)CN(C)C(=O)Cc1cc(C(=O)c2ccc(OC)cc2)sc1-c1ccccc1` [compound 87, ethyl 2-(2-(5-(4-methoxybenzoyl)-2-phenylthiophen-3-yl)-N-methylacetamido)acetate], for which the activity at 50 µM under setting [1] was determined as 77%. Further, the activity at 100 µM under setting [2] came to 73%.

Consider `CCONC(=O)Cc1cc(C(=O)c2ccco2)sc1-c1ccc(Cl)cc1` [compound 98, 2-(2-(4-chlorophenyl)-5-(furan-2-carbonyl)thiophen-3-yl)-N-ethoxyacetamide], for which the activity at 50 µM under setting [1] was 88%. In addition, the activity at 100 µM under setting [2] is 74%.

For the compound `COc1ccc(C(=O)c2cc(CC(=O)NO)c(-c3ccc(Cl)cc3)s2)cc1` [compound 100, 2-(2-(4-chlorophenyl)-5-(4-methoxybenzoyl)thiophen-3-yl)-N-hydroxyacetamide], the “inhibition of hepatic production of glucose” value (“inhibition” below) under setting [3] is given as “strongest inhibitions”. For the same compound, the activity at 50 µM under setting [4] was determined as 43%. Moreover, the activity at 100 µM under setting [5] was found to be 20%.

For the compound `COc1ccc(C(=NO)c2cc(CC(=O)O)c(-c3ccc(Cl)cc3)s2)cc1` [compound 109, 2-(2-(4-chlorophenyl)-5-((hydroxyimino)(4-methoxyphenyl)methyl)thiophen-3-yl)acetic acid], under setting [1], the activity at 50 µM was 69%. The activity at 100 µM under setting [2] was 27%.

For the compound `CON=C(c1ccc(OC)cc1)c1cc(CC(=O)O)c(-c2ccc(Cl)cc2)s1` [compound 110, 2-(2-(4-chlorophenyl)-5-((methoxyimino)(4-methoxyphenyl)methyl)thiophen-3-yl)acetic acid], under setting [1], the activity at 50 µM was 72%. Under setting [2], the activity at 100 µM is 33%.

For the compound `COc1cccc(NC(=O)c2cc(CC(=O)OC(C)C)c(-c3ccc(Cl)cc3)s2)c1` [compound 115, isopropyl 2-(2-(4-chlorophenyl)-5-((3-methoxyphenyl)-carbamoyl)thiophen-3-yl)acetate], the activity at 50 µM under setting [1] was 66%. The activity at 100 µM under setting [2] was determined as 75%.

On to `COc1cccc(CNC(=O)c2cc(CC(=O)OC(C)C)c(-c3ccc(Cl)cc3)s2)c1` [compound 116, isopropyl 2-(2-(4-chlorophenyl)-5-((3-methoxybenzyl)-carbamoyl)thiophen-3-yl)acetate], for which the activity at 50 µM under setting [1] is 62%. Further, under setting [2], the activity at 100 µM came to 67%.

`COc1ccc(NC(=O)c2cc(CC(=O)O)c(-c3ccc(Cl)cc3)s2)cc1` [compound 121, 2-(2-(4-chlorophenyl)-5-((4-methoxyphenyl)carbamoyl)thiophen-3-yl)acetic acid]: the activity at 50 µM under setting [1] was found to be 80%. Also, the activity at 100 µM under setting [2] stood at 66%.

Turning to `COc1ccc(C(=O)c2cc(C(C)C(=O)O)c(-c3ccc(Cl)cc3)s2)cc1` (centres unmarked) [compound 127, 2-(2-(4-chlorophenyl)-5-(4-methoxybenzoyl)thiophen-3-yl)propanoic acid], the “inhibition” value (3 h incubation, with two doses) is reported as “strongest inhibitions”. The activity at 50 µM under setting [1] is 54%. Also, the activity at 100 µM under setting [2] was determined as 23%.

With `COCC(C(=O)O)c1cc(C(=O)c2ccc(OC)cc2)sc1-c1ccc(Cl)cc1` (centres unmarked) [compound 128, 2-(2-(4-chlorophenyl)-5-(4-methoxybenzoyl)thiophen-3-yl)-3-methoxypropanoic acid], the “inhibition” value under setting [3] was “strongest inhibitions”. Under setting [4], the activity at 50 µM was 41%. In addition, under setting [5], the activity at 100 µM came out at 16%.

Regarding `O=C(O)Cc1cc(C(=O)c2ccco2)sc1-c1ccc(Cl)cc1F` [compound 144, 2-(2-(4-chloro-2-fluorophenyl)-5-(furan-2-carbonyl)thiophen-3-yl)acetic acid], the activity at 50 µM under setting [1] was found to be 74%. Under setting [2], the activity at 100 µM worked out at 52%.

Regarding `O=C(O)Cc1cc(C(=O)c2ccccn2)sc1-c1ccc(Cl)cc1` [compound 149, 2-(2-(4-chlorophenyl)-5-picolinoylthiophen-3-yl)acetic acid], the activity at 50 µM under setting [4] was determined as 47%. For the same compound, the activity at 100 µM under setting [5] was 13%.

Consider `O=C(c1ccco1)c1cc(Cc2noc(=O)[nH]2)c(-c2ccc(Cl)cc2)s1` [compound 153, 3-((2-(4-chlorophenyl)-5-(furan-2-carbonyl)thiophen-3-yl)-methyl)-1,2,4-oxadiazol-5(2H)-one], for which the activity at 50 µM under setting [1] was 95%. In addition, the activity at 100 µM under setting [2] amounted to 38%.

Consider `O=C(O)Cc1cc(C(=O)c2ccccc2)sc1-c1ccc(Cl)cc1` [compound 154, 2-[5-benzoyl-2-(4-chlorophenyl)-3-thienyl]acetic acid], for which, under setting [1], the activity at 50 µM is 81%. Moreover, the activity at 100 µM under setting [2] is 63%.

As for `COc1cc(Cl)ccc1C(=O)c1cc(CC(=O)O)c(-c2ccc(Cl)cc2)s1` [compound 156, 2-[5-(4-chloro-2-methoxy-benzoyl)-2-(4-chlorophenyl)-3-thienyl]acetic acid], the “inhibition” value (3 h incubation, with two doses) is recorded as “strongest inhibitions”. The activity at 50 µM under setting [1] came to 21%. Under setting [2], the activity at 100 µM was determined as 7%.

Consider `O=C(O)Cc1cc(C(=O)c2ccco2)sc1-c1ccc(Cl)c(Cl)c1` [compound 159, 2-[2-(3,4-dichlorophenyl)-5-(furan-2-carbonyl)-3-thienyl]acetic acid], for which, for the setting “3 h incubation, at the dose of 50 μM”, the “inhibition” value is on record as “strongest inhibitions”. Moreover, under setting [1], the activity at 50 µM was found to be 40%.

In the case of `COc1ccc(C(=O)c2cc(CC(=O)NCCN(C)C)c(-c3ccc(Cl)c(Cl)c3)s2)cc1` [compound 166, 2-[2-(3,4-dichlorophenyl)-5-(4-methoxybenzoyl)-3-thienyl]-N-(2-dimethylaminoethyl)acetamide], under setting [1], the activity at 50 µM was determined as 71%. Also, the activity at 100 µM under setting [2] stood at 65%.

As for `CCON=C(c1ccc(Cl)c(Cl)c1)c1cc(CC(=O)O)c(-c2ccc(Cl)cc2)s1` [compound 167, 2-[2-(4-chlorophenyl)-5-[C-(3,4-dichlorophenyl)-N-ethoxy-carbonimidoyl]-3-thienyl]acetic acid], the “inhibition” value (3 h incubation, with two doses) was “strongest inhibitions”. For the same compound, under setting [1], the activity at 50 µM was determined as 20%. The activity at 100 µM under setting [2] came to 23%.

`CCOC(=O)Cc1cc(S(=O)(=O)c2ccc(OC)cc2)sc1-c1ccc(Cl)c(Cl)c1` [compound 174, ethyl 2-[2-(3,4-dichlorophenyl)-5-(4-methoxyphenyl)sulfonyl-3-thienyl]acetate]: the activity at 50 µM under setting [1] turned out to be 73%. For the same compound, the activity at 100 µM under setting [2] stood at 77%.

On to `CCOC(=O)Cc1cc(C(=O)NNC(=O)c2cccc(OC)c2)sc1-c1ccc(Cl)cc1` [compound 178, ethyl 2-[2-(4-chlorophenyl)-5-[[(3-methoxybenzoyl)-amino]carbamoyl]-3-thienyl]acetate], for which, under setting [1], the activity at 50 µM is 92%. The activity at 100 µM under setting [2] amounted to 72%.

For the compound `CCOC(=O)Cc1cc(C(=O)NNC(=O)c2ccncc2)sc1-c1ccc(Cl)cc1` [compound 179, ethyl 2-[2-(4-chlorophenyl)-5-[(pyridine-4-carbonyl-amino)-carbamoyl]-3-thienyl]acetate], under setting [1], the activity at 50 µM came out at 91%. Moreover, the activity at 100 µM under setting [2] was found to be 69%.

Regarding `COc1ccc(C(=O)c2cc(CC(=O)NC(=N)N)c(-c3ccc(Cl)c(Cl)c3)s2)cc1` [compound 184, N-carbamimidoyl-2-[2-(3,4-dichlorophenyl)-5-(4-methoxybenzoyl)-3-thienyl]acetamide hydrochloride], the activity at 50 µM under setting [1] is 68%. In addition, under setting [2], the activity at 100 µM turned out to be 80%.
